Article doi:10.1101/2025.08.06.669005v1 (bioRxiv, 2025)
Starred links: 1 amine or outer side, 2 acyl side, 3 side chain; linkers in the order of their positions; H or OH if unused. Positions of bridges follow the written chain, without caps; N, C: chain ends. Non-standard residues stand in square brackets, D forms with d. Residues, ends and D or L forms follow the SMILES beside them. Chains are numbered I, II in the order given. X1 = O=C(O)C[C@@H](C(=O)[*:2])N(c1ccc([N+](=O)[O-])c2nonc12)[*:1]; Nle = CCCC[C@H](N)C(=O)O; Aib = CC(C)(N)C(=O)O

How the values were obtained:
HeLa cells [1] = experiment: Membrane perturbation assay; type: cell-based; details: PI 3.5 µM, 30 min, 37 °C, CLSM, n = 37–65 cells
PANC-1 cells [2] = experiment: Membrane perturbation assay; type: cell-based; details: PI 3.5 µM, 30 min, 37 °C, CLSM, n = 28–58 cells
cancer cells = experiment: sEV drug-loading system with a hydrophobic compound; type: cell-based; details: compound loaded onto sEVs; data not shown
MSC-sEVs = experiment: sEV binding of 2 in solution in the presence of heparin; details: heparin 100 or 500 µg/mL; n = 3
HeLa cells [3] = experiment: Cellular uptake by CLSM; type: cell-based; details: 2 at 1 µM alone, 37 °C, more than 1 h
[4] = test system: sEV-mimicking liposomes (POPC:cholesterol:POPS = 75:15:10 mol%); experiment: Peptide binding to sEV-mimicking liposomes; details: ratio of Kd values for sEV-mimicking liposomes
PANC-1 cells [5] = experiment: Cellular uptake by CLSM; type: cell-based; details: 2 at 1 µM alone, 37 °C, more than 1 h
EVs = details: placed in cultured media without separation steps; cited from earlier work
sEVs = details: previous data; cited from earlier work
ζ-potential measurement = type: physicochemical; details: non- and DiD-labeled MSC-sEVs; Zetasizer Nano ZS, 25 °C; n = 5

Compound	ratio of the dead cells stained by PI (HeLa cells [1]) [%]	ratio of the dead cells stained by PI (PANC-1 cells [2]) [%]	other results
biotin-DKBLLKXLNKBTDBLSKX-GSGS-C-NH2 | biotin-DKBLLKXLNKBTDBLSKX-GSGS-C-NH2 (disulfide) [Peptide 8]	0.0	1.9	
CC[C@@]1(O)C(=O)OCc2c1cc1n(c2=O)Cc2cc3ccccc3nc2-1 [camptothecin]			performance of the sEV drug-loading system (cancer cells): did not work effectively
biotin-IWIAQELRRIGDEFNZYYAZR-NH2 (sidechain bridge or staple) [Peptide 10]	4.5	7.1	
Heparin			fluorescence intensity of NBD of 2 in the presence of MSC-sEVs in solution (MSC-sEVs): did not influence
I: H-[X1]K[Aib]LLK[Nle]LNK[Aib]TD[Aib]LSK[Nle]GSGSC-NH2 / II: H-[X1]K[Aib]LLK[Nle]LNK[Aib]TD[Aib]LSK[Nle]GSGSC-NH2 (disulfide I:23-II:23) [Peptide 2]			NBD signals in cells in the absence of DiD-MSC-sEVs (uptake of peptide alone) (HeLa cells [3]): negligible; affinity relative to that of 1 [4]: 15.7 fold; NBD signals in cells in the absence of DiD-MSC-sEVs (uptake of peptide alone) (PANC-1 cells [5]): negligible
CO [MeOH]	96.5	97.3	
CCCC[C@H](NC(=O)[C@H](CCCCN)NC(=O)[C@H](CO)NC(=O)[C@H](CC(C)C)NC(=O)C(C)(C)NC(=O)[C@H](CC(=O)O)NC(=O)[C@@H](NC(=O)C(C)(C)NC(=O)[C@H](CCCCN)NC(=O)[C@H](CC(N)=O)NC(=O)[C@H](CC(C)C)NC(=O)[C@H](CCCC)NC(=O)[C@H](CCCCN)NC(=O)[C@H](CC(C)C)NC(=O)[C@H](CC(C)C)NC(=O)C(C)(C)NC(=O)[C@H](CCCCN)NC(=O)[C@H](CC(=O)O)Nc1ccc([N+](=O)[O-])c2nonc12)[C@@H](C)O)C(=O)NCC(=O)N[C@@H](CO)C(=O)NCC(=O)N[C@@H](CO)C(=O)N[C@@H](CCCCN)C(N)=O [Peptide 1] (HELM PEPTIDE1{[O=C(O)C[C@H](Nc1ccc([N+](=O)[O-])c2nonc12)C(=O)[*:2]].K.[Aib].L.L.K.[Nle].L.N.K.[Aib].T.D.[Aib].L.S.K.[Nle].G.S.G.S.K.[am]}$$$$V2.0)			time to selective binding to EVs (EVs): ≤ 5 min; amount of peptide bound at the plateau level (sEVs): 1,361 peptides/vesicle
biotin-LSQETFZ’DLWKLLZEN-NH2 (sidechain bridge or staple) [Peptide 9]	6.5	3.3	
DKBLLKXLNKBTDBLSKX-GSGS-C-NH2 (disulfide) [2′]			change of ζ-potential of sEVs in the presence of the peptide (ζ-potential measurement): slight increase in ζ-potential
